Where two headings read alike, the source gives them in different places.
Experiments:
SR Ca^2+ pump (SERCA2a) = biological target: T1, SR Ca^2+ pump (SERCA2a) (Mus musculus, UniProt O55143); conditions: brief exposure to AS (0.25 mM); SR vesicles from mouse heart; cited from earlier work
T1 construct: Using SR vesicles prepared from mouse heart; host or cells: mouse heart SR vesicles

SERCA2a = biological target: T2, SERCA2a (Canis lupus familiaris, UniProt O46674); assay: EGTA-induced dephosphorylation (E2P hydrolysis) in native cardiac SR vesicles, quenched-flow mixing; format: biochemical, dog; conditions: 0.25 mM AS, 24° C.
T2 construct: native cardiac SR vesicles isolated from dog heart; from tissue; host or cells: dog heart, sarcoplasmic reticulum vesicles
T2 sequence (P61012 whole entry partner): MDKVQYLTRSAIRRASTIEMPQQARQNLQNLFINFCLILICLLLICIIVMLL
T2 sequence (O46674 whole entry): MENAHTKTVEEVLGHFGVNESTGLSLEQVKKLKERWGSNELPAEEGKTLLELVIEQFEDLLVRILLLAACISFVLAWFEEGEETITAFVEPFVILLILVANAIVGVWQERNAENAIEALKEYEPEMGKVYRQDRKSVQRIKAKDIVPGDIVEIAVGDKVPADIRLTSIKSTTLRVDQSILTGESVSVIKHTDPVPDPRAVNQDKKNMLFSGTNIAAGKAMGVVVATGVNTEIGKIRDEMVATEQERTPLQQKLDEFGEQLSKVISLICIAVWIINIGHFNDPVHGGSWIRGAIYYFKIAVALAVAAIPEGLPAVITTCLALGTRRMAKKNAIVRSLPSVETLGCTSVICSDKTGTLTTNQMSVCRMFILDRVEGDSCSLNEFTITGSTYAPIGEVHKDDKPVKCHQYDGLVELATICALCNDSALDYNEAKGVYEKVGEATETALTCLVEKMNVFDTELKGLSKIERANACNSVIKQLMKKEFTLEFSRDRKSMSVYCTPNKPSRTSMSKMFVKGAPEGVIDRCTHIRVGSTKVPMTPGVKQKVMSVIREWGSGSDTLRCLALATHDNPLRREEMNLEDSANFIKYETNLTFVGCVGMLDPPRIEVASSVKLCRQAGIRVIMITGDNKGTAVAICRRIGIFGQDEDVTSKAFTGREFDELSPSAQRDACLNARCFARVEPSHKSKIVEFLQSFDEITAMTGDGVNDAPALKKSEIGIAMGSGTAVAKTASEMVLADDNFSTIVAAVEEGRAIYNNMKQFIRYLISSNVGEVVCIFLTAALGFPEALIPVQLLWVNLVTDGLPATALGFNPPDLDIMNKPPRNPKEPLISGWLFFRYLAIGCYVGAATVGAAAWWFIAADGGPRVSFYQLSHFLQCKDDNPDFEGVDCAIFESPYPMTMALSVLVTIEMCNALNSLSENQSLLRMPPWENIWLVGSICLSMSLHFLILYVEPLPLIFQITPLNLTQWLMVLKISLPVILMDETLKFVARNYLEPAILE
From the text: Y-axis indicates the level of E2P (nmol/mg), which undergoes hydrolysis in step 6 of FIG. 3. X-axis indicates time following addition of Angeli's salt (sec). The inset figure represents a normalized comparison of E2P hydrolysis in the presence (+AS) or absence (−AS) of Angeli's salt.
Investigations of the mechanism of the cardiac muscle sarcoplasmic reticulum (SR) Ca^2+ pump (SERCA2a) have provided a paradigm for understanding how the interaction of nitroxyl with a regulatory protein (phospholamban) can activate the pump. SERCA2a is a P-type cation pump, i.e., it utilizes ATP as its energy source for uphill Ca^2+ transport and becomes phosphorylated by ATP during the catalytic cycle (FIG. 3). Regulation of its activity by the small intrinsic cardiac SR membrane protein, phospholamban (PLB), involves primarily steps 6 and 8 which are rate-limiting in the overall transport cycle and control Vmax (steps 6 and 8) and the affinity of the cytoplasmic Ca^2+ transport sites, Km (step 8). Mahaney et al. (2005) Biochemistry 44:7713-7724 and Antipenko et al. (1997) Biochemistry 36:12903-12910. […]
SERCA2a was initially phosphorylated at the catalytic site using 10 μM [γ^32P]ATP and then subsequently dephosphorylated by chasing with 5 mM EGTA. […] In the absence of AS/HNO, E2P decay measured at 24° C. by quenched-flow mixing in dog cardiac SR is slow ([…]) and monophasic (FIG. 4).

[1] = test system: LNCaP (androgen dependent) prostate tumor cells; assay: Growth inhibition of prostate tumor cells, modified MTT assay; format: cell-based
Procedure: (§1) PC3 cells (filled circles) are hormone independent cells, whereas, LNCaP (opend circles) are hormone dependent cells. Y-axis indicates percentage of cell growth as measured by a modified MTT assay. X-axis in the concentration (mM) of Angeli's salt added every 24 hrs for a total of 72 hours.
(§2) A characteristic feature of PC3 (androgen independent) and LNCaP (androgen dependent) prostate tumor cells is the overexpression of an intrinsic plasma membrane Na^+/K^+ pump regulatory protein, MAT-8. As described above, overexpression of MAT-8 is a property shared with breast, pancreatic and lung carcinomas. The growth inhibition of PC3 and LNCaP cells by nitroxyl (HNO) donated by Angeli's salt (AS) was investigated.
(§3) PC3 (2500 cells/well) and LNCaP (4000 cells/well) cells were cultured in 200 μl of incubation media in each well of a 96-well assay plate 24 hours prior to the addition of AS. Following an overnight incubation at 37° C., appropriate AS concentrations were added to each well from a fresh stock solution of 0.5 M AS (Na2N2O3) in 10 mM NaOH (added to stabilize AS) diluted to 30 mM with cell culture medium. AS/HNO was added every 24 hours for a total of 72 hours. Cell viability was assayed using the MTT assay, a colorimetric method performed with minor modification according to the procedure of Mossman (1983) J. Immunol. Methods 65:55-63.

[2] = test system: PC3 (androgen independent) prostate tumor cells; assay: as above; format: cell-based
Procedure: as §1, §2, §3

SERCA2a + PLB (−C) = biological target: T3, SERCA2a + PLB (−C) (Homo sapiens, UniProt P16615+P26678, C36A/C41A/C46A); assay: E2P hydrolysis in Sf21 ER microsomes after EGTA chase; format: biochemical
T3 construct: made in house; host or cells: Sf21 insect cells (baculovirus), ER microsomes
T3 sequence (P16615 1-997 isoform P16615-2, stated change not applied): as the sequence (O46674 whole entry) above, with S376T, K403N, P538S, V544I, N576H, S661N, S713A, D877E, L963V counted along it
T3 sequence (P26678 whole entry C36A/C41A/C46A): as the sequence (P61012 whole entry partner) above, with D2E, N27K, C36A, C41A, C46A counted along it
From the text: (§4) Nitroxyl (HNO) donated by Angeli's salt (AS) enhances intracellular Ca^2+ cycling in isolated cardiac myocytes by activating Ca^2+ release from ryanodine (RyR2) receptors and Ca^2+ re-uptake by the SR Ca^2+ pump. Tocchetti et al. (2007) Circ. Res. 100:96-104. In cardiac SR vesicles, activation of Ca^2+ uptake by HNO involves a direct interaction with the pump and is accompanied by enhanced dephosphorylation of the cardiac Ca^2+-ATPase isozyme, SERCA2a. To determine whether HNO interacts with SERCA2a or its regulatory protein, phospholamban (PLB) and to characterize the protein site(s) modified by HNO, activation of SERCA2a dephosphorylation by nitroxyl using SERCA2a and PLB (WT and mutant) expressed in Sf21 cell ER microsomes (baculovirus system) was investigated. Brief exposure of SERCA2a+WT PLB to 0.25 mM AS produced a 10-fold stimulation of dephosphorylation (0.5 s^−1→5 s^−1) following an EGTA chase (Table 2). […] Exposure to dithiothreitol (2 mM DTT) reversed the activation of dephosphorylation by nitroxyl, similar to its effect on HNO-induced activation of Ca^2+ release from the RyR2 receptor. Tocchetti et al. (2007) Circ. Res. 100:96-104.

SERCA2a + PLB (WT) = biological target: T4, SERCA2a + PLB (WT) (Canis lupus familiaris, UniProt O46674+P61012); assay: as above; format: biochemical
T4 construct: made in house; host or cells: Sf21 insect cells (baculovirus), ER microsomes
T4 sequence (P61012 whole entry): as the sequence (P61012 whole entry partner) above
T4 sequence (O46674 whole entry): as the sequence (O46674 whole entry) above
From the text: as §4

SERCA2a alone = assay: as above; format: biochemical; conditions: 0.25 mM AS
From the text: as §4

cells = conditions: cited from earlier work
[3] = cited from earlier work
[4] = AS added every 24 h for 72 h, read-out: Experiment 2 (EC50)
[5] = AS added every 24 h for 72 h, read-out: Experiment 3 (EC50)
[6] = mean of 3 independent experiments, read-out: Mean EC50
[7] = range given for both cell lines, read-out: EC50 growth inhibition over a series of three separate experiments

T1 sequence (P61014 whole entry partner): as the sequence (P61012 whole entry partner) above, with D2E counted along it
T1 sequence (O55143 1-998 isoform O55143-2): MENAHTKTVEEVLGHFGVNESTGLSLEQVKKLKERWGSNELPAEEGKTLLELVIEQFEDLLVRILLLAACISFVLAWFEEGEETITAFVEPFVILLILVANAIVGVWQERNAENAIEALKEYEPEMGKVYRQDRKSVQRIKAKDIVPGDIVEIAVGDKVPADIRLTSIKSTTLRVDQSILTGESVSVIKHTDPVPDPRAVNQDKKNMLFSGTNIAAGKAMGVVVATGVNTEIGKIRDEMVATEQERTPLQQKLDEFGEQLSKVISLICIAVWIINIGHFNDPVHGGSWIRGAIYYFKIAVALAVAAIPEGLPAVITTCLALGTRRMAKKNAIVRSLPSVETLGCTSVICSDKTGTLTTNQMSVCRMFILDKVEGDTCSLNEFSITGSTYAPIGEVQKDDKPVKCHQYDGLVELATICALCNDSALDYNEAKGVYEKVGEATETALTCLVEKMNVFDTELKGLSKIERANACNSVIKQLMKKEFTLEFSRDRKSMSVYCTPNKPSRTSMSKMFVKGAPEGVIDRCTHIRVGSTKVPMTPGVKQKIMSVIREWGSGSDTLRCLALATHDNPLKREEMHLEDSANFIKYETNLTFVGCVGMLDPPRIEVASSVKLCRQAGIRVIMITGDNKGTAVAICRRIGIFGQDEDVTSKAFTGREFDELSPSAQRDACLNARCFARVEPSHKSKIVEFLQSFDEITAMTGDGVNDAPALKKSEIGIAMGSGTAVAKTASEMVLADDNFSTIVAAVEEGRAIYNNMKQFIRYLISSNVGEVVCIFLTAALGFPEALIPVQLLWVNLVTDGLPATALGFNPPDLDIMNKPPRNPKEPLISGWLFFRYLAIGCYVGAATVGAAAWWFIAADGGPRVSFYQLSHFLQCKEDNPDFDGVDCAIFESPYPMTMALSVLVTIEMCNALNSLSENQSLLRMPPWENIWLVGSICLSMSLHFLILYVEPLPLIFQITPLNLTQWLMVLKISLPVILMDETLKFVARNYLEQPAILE

In the case of [Na+].[Na+].[O-][N+]([O-])=NO [Angeli's salt], the “effect on Ca^2+ uptake” value (SR Ca^2+ pump (SERCA2a)) is listed as “activates Ca^2+uptake”, the “E2P decay, accelerated initial decay phase” value (SERCA2a; without AS 11 s^−1) is listed as 77 s⁻¹ and the E2P decay pattern (SERCA2a; without AS monophasic) is listed as “biphasic decay pattern”. For the same compound, the EC50 ([1]; AS added every 24 h for 72 h, read-out: Experiment 1 (EC50)) was 3 mM, the EC50 [1, 4] was 0.9 mM and the EC50 [1, 5] was 1.2 mM. For the same compound, the EC50 [1, 6] was 1.7 mM, the EC50 ([1]; mean of experiments 2 and 3 only (experiment 1 left out), read-out: Mean EC50) was 1.05 mM and the EC50 [1, 7] was 1 to 1.7 mM. The EC50 ([2]; AS added every 24 h for 72 h, 50% growth inhibition, read-out: Experiment 1 (EC50)) was 1.4 mM, the EC50 [2, 4] was 0.7 mM and the EC50 [2, 5] was 1.4 mM. For the same compound, the EC50 [2, 6] was 1.17 mM, the EC50 [2, 7] was 1 to 1.7 mM and the “A1 (%) amplitude fast phase” value (SERCA2a + PLB (−C); 0.25 mM AS, 0° C.) was 100%. For the same compound, the “k1” value (SERCA2a + PLB (−C); 0.25 mM AS, 0° C.) was 0.18 s⁻¹, the “stimulation of dephosphorylation by nitroxyl” value (SERCA2a + PLB (−C); mutant PLB, all 3 transmembrane cysteines Cys→Ala) was “no stimulation” and the “A1 (%) amplitude fast phase” value (SERCA2a + PLB (WT); 0.25 mM AS, 0° C.) was 11%. For the same compound, the “A2 (%) amplitude slow phase” value (SERCA2a + PLB (WT); 0.25 mM AS, 0° C.) was 89%, the “k1” value (SERCA2a + PLB (WT); 0.25 mM AS, 0° C.) was 5.00 s⁻¹ and the “k2” value (SERCA2a + PLB (WT); 0.25 mM AS, 0° C.) was 0.154 s⁻¹. The dephosphorylation rate (SERCA2a + PLB (WT); 0.25 mM AS, EGTA chase, from 0.5 s^−1 without AS) was 5 s⁻¹, the stimulation of dephosphorylation (SERCA2a + PLB (WT); brief exposure to 0.25 mM AS, EGTA chase) was 10 fold and the “A1 (%) amplitude fast phase” value (SERCA2a alone; 0° C.) was 23%. For the same compound, the “A2 (%) amplitude slow phase” value (SERCA2a alone; 0° C.) was 77%, the “k1” value (SERCA2a alone; 0° C.) was 4.64 s⁻¹ and the “k2” value (SERCA2a alone; 0° C.) was 0.174 s⁻¹. For the same compound, the stimulation of dephosphorylation (SERCA2a alone; microsomes expressing SERCA2a alone) was “No additional stimulation”, the cell permeation (cells) was “rapidly permeates cells” and the water solubility [3] was “highly water soluble”.

Source: US20090280194A1, “USE OF NITROXYL (HNO) FOR THE TREATMENT OF CANCERS OVEREXPRESSING MAT-8” (priority 2008, published 2009)
